Read-outs that look alike come from different tables or passages of the source.
Columns and labels:
Assay type in all cases: cell-based
[1] = system: HCV 3a RLuc cells (NS5A chimeric genotype 1b Con1 replicon with consensus genotype 3a NS5A gene); assay: microbe, parasite or virus in culture; settings: Hepatitis C virus
Method in brief: (§1)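 Replicon cells stably carrying the listed RLuc-encoding dicistronic replicons were seeded and treated with DMSO serial dilutions of compound (10 mM stocks) diluted into culture medium. After 72 h, cells were lysed and Renilla luciferase activity measured. EC50 was derived by non-linear regression.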

[2] = system: HCV 4a Rluc cells (NS5A chimeric genotype 1b Con1 replicon with genotype 4a NS5A gene); assay: microbe, parasite or virus in culture; settings: Hepatitis C virus, read-out: 4a
Method in brief: as §1

[3] = system: HCV 2b Rluc cells (NS5A chimeric genotype 2a JFH-1 replicon with genotype 2b MD2b-1 NS5A gene, M31 present); assay: microbe, parasite or virus in culture; settings: Hepatitis C virus, read-out: 2b
Method in brief: as §1

[4] = system: HCV 1a RLuc cells (dicistronic genotype 1a H77 replicon, RLuc reporter); assay: microbe, parasite or virus in culture; settings: Hepatitis C virus, read-out: 1a
Method in brief: (§2)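 Renilla luciferase HCV replicon cells: dicistronic 1b Con1, 1a H77 or 2a JFH-1 replicons, or a JFH-1 chimera carrying J6 NS5A (M31 present). Compound in DMSO serial dilutions, 72 h incubation, then lysis and luciferase read. EC50 by non-linear regression.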

[5] = system: HCV 1b RLuc cells (dicistronic genotype 1b Con1 replicon, RLuc reporter); assay: microbe, parasite or virus in culture; settings: Hepatitis C virus, read-out: 1b (nM)
Method in brief: as §2

[6] = system: HCV 2a JFH-1 Rluc cells (dicistronic genotype 2a JFH-1 replicon, RLuc reporter); assay: microbe, parasite or virus in culture; settings: Hepatitis C virus, read-out: 2a JFH
Method in brief: as §2

[7] = system: HCV 2a Rluc cells (NS5A chimeric genotype 2a JFH-1 replicon with genotype 2a J6 strain NS5A gene, M31 present); assay: HCV replicon reporter assay, genotype 2a J6 (M31 present); settings: Hepatitis C virus, read-out: 2a J6
Method in brief: as §2

[8] = system: Q30R in genotype 1a NS5A, 1a Rluc replicon transfected into Huh-7 cured-51 cells; assay: HCV replicon assay, resistance mutant 1a Q30R; settings: Hepatitis C virus, Huh-7, read-out: 1a Q30R
Method in brief: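 Q30R introduced into genotype 1a H77 RLuc replicon by site-directed mutagenesis; replicon RNA transfected into Huh-7 cured-51 cells.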

[9] = read-out: 3a, genotype 3a replicon
[10] = read-out: 3a, genotype 3a NS5A chimeric replicon
[11] = genotype 2a JFH-1 RLuc replicon

Compound | EC50 [1, 9] [nM] | EC50 [2] [nM] | EC50 [3] [nM] | EC50 ([4]; genotype 1a replicon) [nM] | EC50 [5] [nM] | EC50 ([6]; genotype 2a JFH-1 replicon) [nM] | EC50 [7] [nM] | EC50 [8] [nM] | EC50 [1, 10] [nM] | EC50 ([4]; genotype 1a H77 RLuc replicon) [nM] | EC50 [6, 11] [nM]
COC[C@H]1C[C@@H](c2nc3ccc4cc(-c5ccc6c(ccc7nc([C@@H]8C[C@H](COC)CN8C(=O)[C@@H](NC(=O)OC)C(C)C)[nH]c76)c5)ccc4c3[nH]2)N(C(=O)[C@@H](NC(=O)OC)C(C)C)C1 [Example 436] | 0.001 to 0.99 | 0.001 to 0.99 | 0.001 to 0.999 | 0.001 to 0.999 | 0.051 | 0.001 to 0.999 | 0.001 to 0.999 | 0.001 to 0.999 | – | – | –
COC[C@H]1C[C@@H](c2nc3ccc4cc5c(cc4c3[nH]2)OCc2cc(-c3cnc([C@@H]4C[C@H](C)CN4C(=O)[C@@H](NC(=O)OC)C(C)C)[nH]3)ccc2-5)N(C(=O)[C@@H](NC(=O)OC)C(C)C)C1 [Example 562] | – | 0.001 to 0.99 | 0.001 to 0.999 | – | 0.019 | – | 0.001 to 0.999 | 0.001 to 0.999 | 0.001 to 0.99 | 0.001 to 0.999 | 0.001 to 0.999
CCO[C@H]1C[C@@H](c2nc3ccc4cc5c(cc4c3[nH]2)OCc2cc(-c3cnc([C@@H]4CCCN4C(=O)[C@H](NC(=O)OC)c4ccccc4)[nH]3)ccc2-5)N(C(=O)[C@@H](NC(=O)OC)C(C)C)C1 [Example 552] | – | 0.001 to 0.99 | 0.001 to 0.999 | – | 0.033 | – | 0.001 to 0.999 | 0.001 to 0.999 | 0.001 to 0.99 | 0.001 to 0.999 | 0.001 to 0.999
COC(=O)N[C@H](C(=O)N1CCC[C@H]1c1nc2ccc3cc(-c4ccc5c(ccc6nc([C@@H]7CC8(CN7C(=O)[C@H](NC(=O)OC)c7ccccc7)OCCO8)[nH]c65)c4)ccc3c2[nH]1)C(C)C [Example 317] | 0.001 to 0.99 | 0.001 to 0.99 | 0.001 to 0.999 | 0.001 to 0.999 | 0.023 | 0.001 to 0.999 | 0.001 to 0.999 | 0.001 to 0.999 | – | – | –
COC(=O)N[C@H](C(=O)N1C[C@@H](C)C[C@H]1c1nc2ccc3cc4c(cc3c2[nH]1)OCc1cc(-c2cnc([C@@H]3CC[C@H](C)N3C(=O)[C@@H](NC(=O)OC)C(C)C)[nH]2)ccc1-4)C(C)C [Example 566] | – | 0.001 to 0.99 | 0.001 to 0.999 | – | 0.009 | – | 0.001 to 0.999 | 0.001 to 0.999 | 0.001 to 0.99 | 0.001 to 0.999 | 0.001 to 0.999
COC(=O)N[C@H](C(=O)N1[C@H]2CC[C@H](C2)[C@H]1c1nc2ccc3cc(-c4ccc(-c5cnc([C@@H]6CCCN6C(=O)[C@H](NC(=O)OC)c6ccccc6)[nH]5)cc4)ccc3c2[nH]1)C(C)C [Example 424] | 0.001 to 0.99 | 0.001 to 0.99 | 0.001 to 0.999 | 0.001 to 0.999 | 0.028 | 0.001 to 0.999 | 0.001 to 0.999 | 1 to 44 | – | – | –
COC[C@H]1C[C@@H](c2ncc(-c3ccc4c(c3)COc3cc5c(ccc6nc([C@@H]7C[C@H](COC)CN7C(=O)[C@@H](NC(=O)OC)C(C)C)[nH]c65)cc3-4)[nH]2)N(C(=O)[C@@H](NC(=O)OC)C(C)C)C1 [Example 579] | – | 0.001 to 0.99 | 0.001 to 0.999 | – | 0.034 | – | 0.001 to 0.999 | 0.001 to 0.999 | 0.001 to 0.99 | 0.001 to 0.999 | 0.001 to 0.999
COC[C@H]1C[C@@H](c2nc3ccc4cc(-c5ccc6c(ccc7nc([C@@H]8CCCN8C(=O)[C@@H](NC(=O)OC)C(C)C)[nH]c76)c5)ccc4c3[nH]2)N(C(=O)[C@H](NC(=O)OC)c2ccccc2)C1 [Example 453] | 0.001 to 0.99 | 0.001 to 0.99 | 0.001 to 0.999 | 0.001 to 0.999 | 0.018 | 0.001 to 0.999 | 0.001 to 0.999 | 0.001 to 0.999 | – | – | –
COC(=O)N[C@H](C(=O)N1[C@H](c2nc3ccc4cc5c(cc4c3[nH]2)OCc2cc(-c3cnc(C4CCCN4C(=O)[C@H](NC(=O)OC)c4ccccc4)[nH]3)ccc2-5)C[C@@H]2CCC[C@@H]21)C(C)C (stereo partly drawn) [Example 574] | – | 0.001 to 0.99 | 0.001 to 0.999 | – | – | – | 0.001 to 0.999 | 0.001 to 0.999 | 0.001 to 0.99 | 0.001 to 0.999 | 0.001 to 0.999
COC(=O)N[C@H](C(=O)N1CCC[C@H]1c1ncc(-c2ccc3c(c2)COc2cc4c(cc2-3)CCc2nc([C@@H]3CCCN3C(=O)[C@H](NC(=O)OC)c3ccccc3)[nH]c2-4)[nH]1)C(C)C [Example 434] | 0.001 to 0.99 | 0.001 to 0.99 | 0.001 to 0.999 | 0.001 to 0.999 | – | 0.001 to 0.999 | 0.001 to 0.999 | 0.001 to 0.999 | – | – | –
COC[C@@H]1C[C@@H](c2nc3ccc4cc5c(cc4c3[nH]2)OCc2cc(-c3cnc([C@@H]4CCCN4C(=O)[C@@H](NC(=O)OC)C(C)C)[nH]3)ccc2-5)N(C(=O)[C@H](NC(=O)OC)c2ccccc2)C1 [Example 589] | – | 0.001 to 0.99 | 0.001 to 0.999 | – | – | – | 0.001 to 0.999 | 0.001 to 0.999 | 0.001 to 0.99 | 0.001 to 0.999 | 0.001 to 0.999
COC[C@H]1C[C@@H](c2nc3ccc4cc5c(cc4c3[nH]2)OCc2cc(-c3cnc([C@@H]4CCCN4C(=O)[C@@H](NC(=O)OC)C(C)C)[nH]3)ccc2-5)N(C(=O)[C@H](NC(=O)OC)c2ccccc2)C1 [Example 538] | – | 0.001 to 0.99 | 0.001 to 0.999 | – | – | – | 0.001 to 0.999 | 0.001 to 0.999 | 0.001 to 0.99 | 0.001 to 0.999 | 0.001 to 0.999
COC(=O)N[C@H](C(=O)N1[C@@H](C)CC[C@H]1c1ncc(-c2ccc3c(c2)COc2cc4c(ccc5nc([C@@H]6CC[C@H](C)N6C(=O)[C@@H](NC(=O)OC)[C@@H](C)OC)[nH]c54)cc2-3)[nH]1)[C@@H](C)OC [Example 592] | – | 0.001 to 0.99 | 0.001 to 0.999 | – | – | – | 0.001 to 0.999 | 0.001 to 0.999 | 0.001 to 0.99 | 0.001 to 0.999 | 0.001 to 0.999
COC[C@H]1C[C@@H](c2nc3c([nH]2)-c2cc4c(cc2CC3)-c2ccc(-c3cnc([C@@H]5CCCN5C(=O)[C@@H](NC(=O)OC)C(C)C)[nH]3)cc2CO4)N(C(=O)[C@H](NC(=O)OC)c2ccccc2)C1 [Example 587] | – | 0.001 to 0.99 | 0.001 to 0.999 | – | – | – | 0.001 to 0.999 | 0.001 to 0.999 | 0.001 to 0.99 | 0.001 to 0.999 | 0.001 to 0.999
COC(=O)N[C@H](C(=O)N1CCC[C@H]1c1nc2c([nH]1)-c1cc3c(cc1CC2)-c1ccc(-c2cnc([C@@H]4CCCN4C(=O)[C@H](NC(=O)OC)c4ccccc4)[nH]2)cc1CO3)C(C)C [Example 435] | 0.001 to 0.99 | 0.001 to 0.99 | 0.001 to 0.999 | 0.001 to 0.999 | – | 0.001 to 0.999 | 0.001 to 0.999 | 0.001 to 0.999 | – | – | –
COC(=O)N[C@H](C(=O)N1CCC[C@H]1c1ncc(-c2ccc3c(c2)COc2cc4c(ccc5nc([C@@H]6C[C@H](C)CN6C(=O)[C@@H](NC(=O)OC)C(C)C)[nH]c54)cc2-3)[nH]1)C(C)C [Example 526] | – | 0.001 to 0.99 | 0.001 to 0.999 | – | – | – | 0.001 to 0.999 | 0.001 to 0.999 | 0.001 to 0.99 | 0.001 to 0.999 | 0.001 to 0.999
